Results reported in patent US9133224B2, “Macrocyclic kinase inhibitors” (OSI Pharmaceuticals, LLC, priority 2010, dated 2015).
Read-outs that look alike come from different tables or passages of the source.

What was measured:
[1] = 22-membered ring
[2] = target: T1, GST-tagged full-length FAK enzyme (PTK2) (Homo sapiens, UniProt Q05397); assay: Biochemical Omnia Assay (FAK)
T1 construct: GST-tagged full-length FAK enzyme (PTK2, Invitrogen PV4085); GST; purchased Invitrogen PV4085
How it was run: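 GST-tagged full-length human FAK, added at 50 nM to compound and a peptide (40 μM)/ATP (200 μM) solution, stated before mixing. Omnia peptide phosphorylation followed continuously by fluorescence increase. Duplicate points; IC50 by nonlinear fitting of linear progress-curve slopes.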

[3] = target: T2, FAK (Homo sapiens, UniProt Q05397); assay: Cell-based capture ELISA for inhibition of FAK autophosphorylation [pY397] in U87MG cells
T2 construct: endogenous in cells; host or cells: U87MG glioblastoma cells (ATCC HTB-14)
T2 sequence (Q05397 whole entry): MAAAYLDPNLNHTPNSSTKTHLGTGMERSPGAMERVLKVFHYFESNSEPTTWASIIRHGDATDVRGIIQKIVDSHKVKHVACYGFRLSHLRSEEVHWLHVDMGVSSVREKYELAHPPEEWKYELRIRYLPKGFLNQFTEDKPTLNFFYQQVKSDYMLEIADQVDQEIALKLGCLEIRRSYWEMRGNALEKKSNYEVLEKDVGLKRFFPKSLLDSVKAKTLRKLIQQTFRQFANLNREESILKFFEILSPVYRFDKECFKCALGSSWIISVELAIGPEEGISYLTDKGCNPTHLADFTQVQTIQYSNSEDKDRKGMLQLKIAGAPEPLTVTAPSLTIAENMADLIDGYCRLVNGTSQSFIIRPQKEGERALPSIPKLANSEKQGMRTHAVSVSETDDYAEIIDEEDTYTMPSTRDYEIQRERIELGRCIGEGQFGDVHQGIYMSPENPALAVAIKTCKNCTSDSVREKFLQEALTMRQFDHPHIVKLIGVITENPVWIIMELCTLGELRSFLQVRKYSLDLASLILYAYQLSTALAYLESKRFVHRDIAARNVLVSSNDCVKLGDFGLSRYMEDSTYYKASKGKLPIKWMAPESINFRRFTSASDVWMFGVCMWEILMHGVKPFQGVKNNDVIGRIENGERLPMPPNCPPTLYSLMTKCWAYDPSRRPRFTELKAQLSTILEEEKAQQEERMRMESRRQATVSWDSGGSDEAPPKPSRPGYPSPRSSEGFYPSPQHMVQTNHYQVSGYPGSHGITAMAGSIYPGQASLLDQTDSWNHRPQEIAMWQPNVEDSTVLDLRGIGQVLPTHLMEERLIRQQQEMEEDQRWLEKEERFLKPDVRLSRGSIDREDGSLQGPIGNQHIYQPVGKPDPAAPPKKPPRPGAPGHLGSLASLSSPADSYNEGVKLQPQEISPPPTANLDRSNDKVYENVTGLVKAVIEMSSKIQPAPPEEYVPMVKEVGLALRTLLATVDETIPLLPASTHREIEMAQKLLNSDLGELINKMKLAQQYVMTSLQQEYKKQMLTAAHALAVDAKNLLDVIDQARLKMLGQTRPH
How it was run: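 U87MG cells on fibronectin-coated plates treated with compounds for 2 h at 37° C in complete growth medium (0.6% DMSO final). Lysates captured on anti-FAK ELISA plates; pY397 detected with phospho-specific antibody, HRP and chromogen at 450 nm. Variant run with 50% (v/v) mouse or human plasma.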

[4] = from CCC[CH2][Sn]([CH2]CCC)([CH2]CCC)[c]1cn(CCCOP(=O)(CCC)Cc2ccc(Nc3ncc(C(F)(F)F)c(Nc4ccc(Br)nc4C(=O)NC)n3)c(OC)c2)nn1, cc_pd bond
[5] = 50% (v/v) human plasma, mean IC50, read-out: FAK Activity Mechanistic (U87MG) HP
[6] = 50% (v/v) mouse plasma, mean IC50, read-out: FAK Activity Mechanistic (U87MG) MP
[7] = no plasma present, mean IC50, read-out: FAK Activity Mechanistic (U87MG) NP
[8] = from CCC[CH2][Sn]([CH2]CCC)([CH2]CCC)[c]1cn(CCCOP(=O)(Cc2ccc(Nc3ncc(C(F)(F)F)c(Nc4ccc(Br)nc4C(=O)NC)n3)c(OC)c2)OCC)nn1, cc_pd bond, 2 steps
[9] = mean IC50, [ATP] = 50uM, read-out: FAK Activity Biochemical OMNIA, [ATP] = 50uM

T1 sequence (Q05397 whole entry): as above

CCC[P@@]1(=O)Cc2ccc(c(OC)c2)Nc2ncc(C(F)(F)F)c(n2)Nc2ccc(nc2C(=O)NC)-c2cn(nn2)CCCO1 (mixture of isomers)
ring closure, isolated yield [1, 4]: 19%

CCOP1(=O)Cc2ccc(c(OC)c2)Nc2ncc(C(F)(F)F)c(n2)Nc2ccc(cc2C(=O)N(CC)CC)-c2cnn(c2)CCCO1 (racemic)
ring closure, yield of all isomers (from CCOP(=O)(O)Cc1ccc(Nc2ncc(C(F)(F)F)c(Nc3ccc(-c4cnn(CCCO)c4)cc3C(=O)N(CC)CC)n2)c(OC)c1, ester bond, PyBOP/DIPEA, 1,2-dichloroethane, 1.03 mM, 25.0 °C, 24.0 h): 43%

CCOP1(=O)Cc2ccc(c(OC)c2)Nc2ncc(C(F)(F)F)c(n2)Nc2ccc(nc2C(=O)NC)-c2cc(C(=O)OC)n(c2)CCCO1 (racemic) [Example 38]
ring closure, yield of all isomers (from CCOP(=O)(O)Cc1ccc(Nc2ncc(C(F)(F)F)c(Nc3ccc(-c4cc(C(=O)OC)n(CCCO)c4)nc3C(=O)NC)n2)c(OC)c1, ester bond, PyBOP/DIPEA, 1,2-dichloroethane, 1.53 mM, 25.0 °C, 24.0 h): 58% | IC50 [2]: < 0.4 µM | IC50 [3, 5]: < 0.4 µM | IC50 [3, 6]: 0.4 to 4 µM | IC50 [3, 7]: < 0.4 µM

CCO[P@@]1(=O)Cc2ccc(c(OC)c2)Nc2ncc(C(F)(F)F)c(n2)Nc2ccc(c3c2C(=O)N(C)C3)-c2cnn(c2)CCCO1
ring closure, yield of all isomers (from CCOP(=O)(O)Cc1ccc(Nc2ncc(C(F)(F)F)c(Nc3ccc(-c4cnn(CCCO)c4)c4c3C(=O)N(C)C4)n2)c(OC)c1, ester bond, PyBOP/DIPEA, 1,2-dichloroethane, 1.17 mM, 72.0 h): 14.1%

CCC[P@]1(=O)Cc2ccc(c(OC)c2)Nc2ncc(C(F)(F)F)c(n2)Nc2ccc(nc2C(=O)NC)-c2cnn(c2)CCCO1 (mixture of isomers)
ring closure, isolated yield ([1]; from CCCP(=O)(O)Cc1ccc(Nc2ncc(C(F)(F)F)c(Nc3ccc(-c4cnn(CCCO)c4)nc3C(=O)NC)n2)c(OC)c1, ester bond, DCC, 2 steps): 55%

CCO[P@]1(=O)Cc2ccc(c(OC)c2)Nc2ncc(C(F)(F)F)c(n2)Nc2ccc(cc2C(=O)N(CC)CC)-c2cnn(c2)CCCO1 (mixture of isomers)
ring closure, isolated yield ([1]; from CCOP(=O)(O)Cc1ccc(Nc2ncc(C(F)(F)F)c(Nc3ccc(-c4cnn(CCCO)c4)cc3C(=O)N(CC)CC)n2)c(OC)c1, ester bond, PyBOP/DIEA, DCE/DMF, 1.03 mM, 25.0 °C): 43%

CCO[P@@]1(=O)Cc2ccc(c(OC)c2)Nc2ncc(C(F)(F)F)c(n2)Nc2ccc(nc2C(=O)NC)-c2cn(nn2)CCCO1
ring closure, isolated yield [1, 8]: 24%

CCCP1(=O)Cc2ccc(c(OC)c2)Nc2ncc(C(F)(F)F)c(n2)Nc2ccc(nc2C(=O)NC)-c2cn(nn2)CCCO1 (racemic)
ring closure, yield of all isomers [4]: 19%

CCOP1(=O)Cc2ccc(c(OC)c2)Nc2ncc(C(F)(F)F)c(n2)Nc2ccc(nc2C(=O)NC)-c2cn(nn2)CCCO1 (single isomer, unassigned) [Example 64A]
ring closure, yield of all isomers [8]: 24% | IC50 [2, 9]: < 0.4 µM | IC50 [3, 5]: < 0.4 µM | IC50 [3, 7]: < 0.4 µM

CCO[P@]1(=O)Cc2ccc(c(OC)c2)Nc2ncc(C(F)(F)F)c(n2)Nc2ccc(nc2C(=O)NC)-c2cc(C(=O)OC)n(c2)CCCO1 (mixture of isomers)
ring closure, isolated yield ([1]; from CCOP(=O)(O)Cc1ccc(Nc2ncc(C(F)(F)F)c(Nc3ccc(-c4cc(C(=O)OC)n(CCCO)c4)nc3C(=O)NC)n2)c(OC)c1, ester bond, PyBOP/DIEA, DCE, 1.53 mM, 25.0 °C): 58%

CCOP1(=O)Cc2ccc(c(OC)c2)Nc2ncc(C(F)(F)F)c(n2)Nc2ccc(nc2C(=O)NC)-c2cnn(c2)CC2(COC2)CO1 (racemic)
ring closure, yield of all isomers (from CCOP(=O)(Cc1ccc(Nc2ncc(C(F)(F)F)c(Nc3ccc(Br)nc3C(=O)NC)n2)c(OC)c1)OCC1(Cn2cc(B3OC(C)(C)C(C)(C)O3)cn2)COC1, cc_pd bond, Pd(dppf)Cl2·CH2Cl2, K2CO3, 1,4-dioxane, 13.5 mM, 100.0 °C, 0.5 h): 43%

CCCP1(=O)Cc2ccc(c(OC)c2)Nc2ncc(C(F)(F)F)c(n2)Nc2ccc(nc2C(=O)NC)-c2cnn(c2)CCCO1 (racemic)
ring closure, yield of all isomers (from CCCP(=O)(O)Cc1ccc(Nc2ncc(C(F)(F)F)c(Nc3ccc(-c4cnn(CCCO)c4)nc3C(=O)NC)n2)c(OC)c1, ester bond, DCC, pyridine, 15.0 mM, 115.0 °C, 5.5 h, 2 steps): 55%

CCNC(=O)c1nc2ccc1Nc1nc(ncc1C(F)(F)F)Nc1ccc(cc1OC)CP(=O)(OCC)OCC1(COC1)Cn1cc-2cn1 (single isomer, unassigned) [Example 45A]
IC50 [2]: < 0.4 µM | IC50 [3, 5]: 0.4 to 4 µM | IC50 [3, 7]: < 0.4 µM

CCOP1(=O)Cc2cc(OC)c(cc2Cl)Nc2ncc(C(F)(F)F)c(n2)Nc2ccc(nc2C(=O)NC)-c2cnn(c2)CC2(COC2)CO1 (single isomer, unassigned) [Example 57A]
IC50 [2]: < 0.4 µM | IC50 [3, 5]: > 4 µM | IC50 [3, 6]: 0.4 to 4 µM | IC50 [3, 7]: < 0.4 µM

CCOP1(=O)Cc2ccc(c(OC)c2)Nc2ncc(C(F)(F)F)c(n2)Nc2ccc(c3c2C(=O)N(C)C3)-c2cnn(c2)C[C@H](O)CO1 (mixture of isomers) [Example 5]
IC50 [2]: < 0.4 µM | IC50 [3, 5]: < 0.4 µM | IC50 [3, 7]: < 0.4 µM

CCP1(=O)Cc2ccc(c(OC)c2)Nc2ncc(C(F)(F)F)c(n2)Nc2ccc(nc2C(=O)NC)-c2cnn(c2)CCCO1 (racemic) [Example 67]
IC50 [2, 9]: < 0.4 µM | IC50 [3, 5]: < 0.4 µM | IC50 [3, 6]: < 0.4 µM | IC50 [3, 7]: < 0.4 µM

CCOP1(=O)Cc2ccc(c(OC)c2)Nc2ncc(C(F)(F)F)c(n2)Nc2ccc(nc2C(=O)NC)-c2cnn(c2)CC(C)(C)CO1 (racemic) [Example 47]
IC50 [2]: < 0.4 µM | IC50 [3, 5]: < 0.4 µM | IC50 [3, 7]: < 0.4 µM

CCCP1(=O)Cc2ccc(c(OC)c2)Nc2ncc(C(F)(F)F)c(n2)Nc2ccc(nc2C(=O)NC)-c2cnn(c2)CCCO1 (single isomer, unassigned) [Example 37A]
IC50 [2, 9]: < 0.4 µM | IC50 [3, 5]: 0.4 to 4 µM | IC50 [3, 6]: 0.4 to 4 µM | IC50 [3, 7]: < 0.4 µM

CCOP1(=O)Cc2ccc(cc2)Nc2ncc(C(F)(F)F)c(n2)Nc2ccc(nc2C(=O)NC)-c2cnn(c2)CC(C)CO1 (mixture of isomers) [Example 21]
IC50 [2, 9]: < 0.4 µM | IC50 [3, 5]: < 0.4 µM | IC50 [3, 7]: < 0.4 µM

CNC(=O)c1nc2ccc1Nc1nc(ncc1C(F)(F)F)Nc1ccc(cc1OC)CP(=O)(C(C)C)OCCCn1cc-2cn1 (single isomer, unassigned) [Example 68A]
IC50 [2, 9]: < 0.4 µM | IC50 [3, 5]: 0.4 to 4 µM | IC50 [3, 6]: 0.4 to 4 µM | IC50 [3, 7]: < 0.4 µM
